Experimental data published in patent US20260226068A1, “IMIDAZOTRIAZINE IL-17A MODULATORS AND USES THEREOF” (DICE ALPHA, INC., priority 2023, published 2026).

What was measured:
IL-17A/A = biological target: T1, IL-17A/A (Homo sapiens, UniProt Q16552); experiment: IL-17A/A HEK-Blue cell assay (SEAP reporter); type: cell-based; conditions: HEK-Blue IL-17A reporter cells, IL17A/A 5 ng/mL, 20 hours, SEAP read at A630; read-out: HEK-Blue IL17AA (IC50 for IL-17A/A inhibition)
T1 construct: purchased Genscript Z03228
T1 sequence (Q16552 24-155): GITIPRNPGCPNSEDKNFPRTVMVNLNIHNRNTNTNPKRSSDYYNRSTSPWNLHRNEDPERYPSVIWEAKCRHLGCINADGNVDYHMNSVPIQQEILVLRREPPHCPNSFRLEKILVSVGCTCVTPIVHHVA

IL-17A/F = biological target: T2, IL-17A/F (Homo sapiens, UniProt Q16552+Q96PD4); experiment: IL-17A/F HEK-Blue cell assay (SEAP reporter); type: cell-based; conditions: HEK-Blue IL-17A reporter cells, IL17A/F 5 ng/mL, 20 hours, SEAP read at A630; read-out: HEK-Blue IL17AF (IC50 for IL-17A/F inhibition)
T2 construct: purchased R&D Systems
T2 sequence (Q16552 24-155): T1 sequence (Q16552 24-155)
T2 sequence (Q96PD4 31-163): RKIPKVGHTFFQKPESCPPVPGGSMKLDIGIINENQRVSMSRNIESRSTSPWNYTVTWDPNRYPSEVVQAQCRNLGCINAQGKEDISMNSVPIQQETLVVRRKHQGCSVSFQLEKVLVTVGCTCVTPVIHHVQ

IC50 (IL-17A/A)	IC50 (IL-17A/F)	Compound
< 100 nM	> 1000 nM	CCn1nccc1C(=O)N[C@H](c1cn2nc(C[C@H]3CC(F)(F)CNC3=O)c(C3CCOCC3)nc2n1)C1CCC(F)(F)CC1 [Compound 279]
< 100 nM	100 to 1000 nM	Cc1nocc1C(=O)N[C@H](c1cn2nc(C[C@H]3C[C@@H](C(F)(F)F)CNC3=O)c(C3CCOCC3)nc2n1)C1CCC(F)(F)CC1 [Compound 189, N-((1S)-(4,4-difluorocyclohexyl)(2-(((3R,5R)-2-oxo-5-(trifluoromethyl)piperidin-3-yl)methyl)-3-(tetrahydro-2H-pyran-4-yl)imidazo[1,2-b][1,2,4]triazin-6-yl)methyl)-3-methylisoxazole-4-carboxamide]
< 100 nM	100 to 1000 nM	CCn1nccc1C(=O)N[C@H](c1cn2nc(C[C@H]3C[C@@H](C(F)(F)F)CNC3=O)c(CN3CCOCC3C)nc2n1)C1CCC(F)(F)CC1 (single isomer, unassigned) [Compound 232]
< 100 nM	100 to 1000 nM	CCn1nccc1C(=O)N[C@H](c1cn2nc(C[C@H]3C[C@@H](C(F)(F)F)CNC3=O)c(C34COCC(C3)C4)nc2n1)C1CCC(F)(F)CC1 [Compound 253, N—((S)-(3-(3-oxabicyclo[3.1.1]heptan-1-yl)-2-(((3R,5R)-2-oxo-5-(trifluoromethyl)piperidin-3-yl)methyl)imidazo[1,2-b][1,2,4]triazin-6-yl)(4,4-difluorocyclohexyl)methyl)-1-ethyl-1H-pyrazole-5-carboxamide]
100 to 1000 nM	> 1000 nM	O=C(N[C@H](c1cn2nc(CC3C[C@H](C(F)(F)F)CNC3=O)cnc2n1)C1CCC(F)(F)CC1)c1nonc1C1CC1 (stereo partly drawn) [Compound 16, 4-cyclopropyl-N—((S)-(4,4-difluorocyclohexyl)(2-(((5S)-2-oxo-5-(trifluoromethyl)piperidin-3-yl)methyl)imidazo[1,2-b][1,2,4]triazin-6-yl)methyl)-1,2,5-oxadiazole-3-carboxamide]
< 100 nM	100 to 1000 nM	CCn1nccc1C(=O)N[C@H](c1cn2nc(C[C@H]3C[C@@H](C(F)(F)F)CNC3=O)c(N[C@H]3CC[C@@H](OC)CC3)nc2n1)C1CCC(F)(F)CC1 [Compound 201]
< 100 nM	> 1000 nM	CCn1nccc1C(=O)N[C@H](c1cn2nc(C[C@H]3C[C@@H](C(F)(F)F)CNC3=O)c(C3COCCN3)nc2n1)C1CCC(F)(F)CC1 (stereo partly drawn) [Compound 353, N-((1S)-(4,4-difluorocyclohexyl)(3-(morpholin-3-yl)-2-(((3R,5R)-2-oxo-5-(trifluoromethyl)piperidin-3-yl)methyl)imidazo[1,2-b][1,2,4]triazin-6-yl)methyl)-1-ethyl-1H-pyrazole-5-carboxamide]
< 100 nM	> 1000 nM	CCn1nccc1C(=O)N[C@H](c1cn2nc(CC3C[C@@H](C(F)(F)F)CNC3=O)c(C3CCOCC3)nc2n1)C1CCC(F)(F)CC1 (stereo in doubt) [Compound 89, N-((1S)-(4,4-difluorocyclohexyl)(2-(((3R,5R)-2-oxo-5-(trifluoromethyl)piperidin-3-yl)methyl)-3-(tetrahydro-2H-pyran-4-yl)imidazo[1,2-b][1,2,4]triazin-6-yl)methyl)-1-ethyl-1H-pyrazole-5-carboxamide]
< 100 nM	100 to 1000 nM	CCn1nccc1C(=O)N[C@H](c1cn2nc(C[C@H]3C[C@@H](C(F)(F)F)CNC3=O)c(Cn3ccnc3)nc2n1)C1CCC(F)(F)CC1 [Compound 334, N—((S)-(3-((1H-imidazol-1-yl)methyl)-2-(((3R,5R)-2-oxo-5-(trifluoromethyl)piperidin-3-yl)methyl)imidazo[1,2-b][1,2,4]triazin-6-yl)(4,4-difluorocyclohexyl)methyl)-1-ethyl-1H-pyrazole-5-carboxamide]
< 100 nM	> 1000 nM	O=C(N[C@H](c1cn2nc(C[C@H]3C[C@@H](C(F)(F)F)CNC3=O)c(C3CCOC3)nc2n1)C1CCC(F)(F)CC1)c1nonc1C1CC1 (single isomer, unassigned) [Compound 134]
< 100 nM	> 1000 nM	O=C(N[C@H](c1cn2nc(CC3C[C@@H](C(F)(F)F)CNC3=O)cnc2n1)C1CCC(F)(F)CC1)c1nonc1C1CC1 (stereo partly drawn) [Compound 13, 4-cyclopropyl-N—((S)-(4,4-difluorocyclohexyl)(2-(((5R)-2-oxo-5-(trifluoromethyl)piperidin-3-yl)methyl)imidazo[1,2-b][1,2,4]triazin-6-yl)methyl)-1,2,5-oxadiazole-3-carboxamide]
< 100 nM	> 1000 nM	CCn1nccc1C(=O)N[C@H](c1cn2nc(C[C@H]3C[C@@H](C(F)(F)F)CNC3=O)c(CN3CC4(C3)CC(F)(F)C4)nc2n1)C1CCC(F)(F)CC1 [Compound 340, N—((S)-(3-((6,6-difluoro-2-azaspiro[3.3]heptan-2-yl)methyl)-2-(((3R,5R)-2-oxo-5-(trifluoromethyl)piperidin-3-yl)methyl)imidazo[1,2-b][1,2,4]triazin-6-yl)(4,4-difluorocyclohexyl)methyl)-1-ethyl-1H-pyrazole-5-carboxamide]
100 to 1000 nM	> 1000 nM	CCn1nccc1C(=O)N[C@H](c1cn2nc(C[C@H]3C[C@@H](C(F)(F)F)CNC3=O)c(CN3CC4(CC4)C3)nc2n1)C1CCC(F)(F)CC1 [Compound 339, N—((S)-(3-((5-azaspiro[2.3]hexan-5-yl)methyl)-2-(((3R,5R)-2-oxo-5-(trifluoromethyl)piperidin-3-yl)methyl)imidazo[1,2-b][1,2,4]triazin-6-yl)(4,4-difluorocyclohexyl)methyl)-1-ethyl-1H-pyrazole-5-carboxamide]
< 100 nM	> 1000 nM	CCn1nccc1C(=O)N[C@H](c1cn2nc(CC3C[C@@H](C(F)(F)F)CNC3=O)c(N3CCOCC3)nc2n1)[C@H]1CC[C@H](C)CC1 (single isomer, unassigned) [Compound 23]
< 100 nM	100 to 1000 nM	CCn1nccc1C(=O)N[C@H](c1cn2nc(C[C@@H]3C[C@H](C)CNC3=O)c(C3CCOCC3)nc2n1)C1CCC(F)(F)CC1 [Compound 220]
< 100 nM	100 to 1000 nM	CCn1nccc1C(=O)N[C@H](c1cn2nc(C[C@H]3C[C@H](C)CNC3=O)c(C3CCOCC3)nc2n1)C1CCC(F)(F)CC1 [Compound 219]
100 to 1000 nM	> 1000 nM	CCn1nccc1C(=O)N[C@H](c1cn2nc(CC3C[C@@H](C(F)(F)F)CNC3=O)cnc2n1)[C@H]1CC[C@H](C)CC1 (single isomer, unassigned) [Compound 2]
< 100 nM	> 1000 nM	CCc1nonc1C(=O)N[C@H](c1cn2nc(C[C@H]3C[C@@H](C(F)(F)F)CNC3=O)c(C3CCOCC3)nc2n1)C1CC2(C1)CC(F)(F)C2 [Compound 315, N—((S)-(6,6-difluorospiro[3.3]heptan-2-yl)(2-(((3R,5R)-2-oxo-5-(trifluoromethyl)piperidin-3-yl)methyl)-3-(tetrahydro-2H-pyran-4-yl)imidazo[1,2-b][1,2,4]triazin-6-yl)methyl)-4-ethyl-1,2,5-oxadiazole-3-carboxamide]
< 100 nM	100 to 1000 nM	CCn1nccc1C(=O)N[C@H](c1cn2nc(C[C@H]3C[C@@H](C(F)(F)F)CNC3=O)c(CN(C)C3CC3)nc2n1)C1CCC(F)(F)CC1 [Compound 356, N—((S)-(3-((cyclopropyl(methyl)amino)methyl)-2-(((3R,5R)-2-oxo-5-(trifluoromethyl)piperidin-3-yl)methyl)imidazo[1,2-b][1,2,4]triazin-6-yl)(4,4-difluorocyclohexyl)methyl)-1-ethyl-1H-pyrazole-5-carboxamide]
< 100 nM	100 to 1000 nM	CCn1nccc1C(=O)N[C@H](c1cn2nc(CC3C[C@@H](C(F)(F)F)CNC3=O)c(N3C[C@H]4C[C@@H]3CO4)nc2n1)C1CCC(F)(F)CC1 (single isomer, unassigned) [Compound 86]
< 100 nM	100 to 1000 nM	CCn1nccc1C(=O)N[C@H](c1cn2nc(C[C@H]3C[C@@H](C(F)(F)F)CNC3=O)c(N(C)C3CC3)nc2n1)C1CCC(F)(F)CC1 [Compound 143, N—((S)-(3-(cyclopropyl(methyl)amino)-2-(((3R,5R)-2-oxo-5-(trifluoromethyl)piperidin-3-yl)methyl)imidazo[1,2-b][1,2,4]triazin-6-yl)(4,4-difluorocyclohexyl)methyl)-1-ethyl-1H-pyrazole-5-carboxamide]
< 100 nM	100 to 1000 nM	CCn1nccc1C(=O)N[C@H](c1cn2nc(CC3C[C@@H](C(F)(F)F)CNC3=O)c(N3C[C@@H]4C[C@H]3CO4)nc2n1)[C@H]1CC[C@H](C)CC1 (single isomer, unassigned) [Compound 109]
< 100 nM	< 100 nM	CCn1nccc1C(=O)N[C@H](c1cn2nc(C[C@H]3C[C@@H](C(F)(F)F)CNC3=O)c(CN3CCOCC3C)nc2n1)[C@H]1CC[C@H](C)CC1 (stereo partly drawn) [Compound 408, 1-ethyl-N-((1S)-((1r,4S)-4-methylcyclohexyl)(3-((3-methylmorpholino)methyl)-2-(((3R,5R)-2-oxo-5-(trifluoromethyl)piperidin-3-yl)methyl)imidazo[1,2-b][1,2,4]triazin-6-yl)methyl)-1H-pyrazole-5-carboxamide]
